Measured values published in PubChem BioAssay AID1963826 (Molecular Pharmacology Branch, DTP, NCI, 2024).

Test system: 926638-142-R-J1-PDC complex spheroid viability
Experiment: Anticancer human tumor 926638-142-R-J1-PDC patient-derived endometrial carcinoma cell line growth inhibition [POLQ]
Conditions: for IC50: curve of first compound; for viability, T/C: stronger effect = lower value; active = viability on the fitted dose curve at most 10% of control; inactive = the rest
Protocol: Multicellular complex tumor spheroid response to Polymerase (POL) inhibitors (novobiocin, ART-558, RP6685) in combination with a variety of drugs and investigational agents in selected tumor cell lines
The POL inhibitors (novobiocin, ART-558, and RP6685) were evaluated both individually and in combination with standard of care and investigational anticancer small molecules within a complex spheroid model of solid tumors. . Complex spheroids include a stromal component modeled by human endothelial cells (HUVEC) and fibroblasts modeled by human mesenchymal stem cells (MSCs). The concentration ranges selected for each drug and investigational agent were based upon clinically achievable concentrations if the clinical Cmax of the agent was known.
Compounds. The drugs and investigational agents: novobiocin (NSC847541), ART-558 (NSC835418), RP-6685 (NSC848927), peposertib (NSC802822), ceralasertib (NSC780249), elimusertib (NSC800525), camonsertib (NSC841442), AZD-1390 (NSC803789), olaparib (NSC753686), talazoparib (NSC767125), rucaparib (NSC756644), sotorasib (NSC818433), MRTX-1133 (NSC836407), SN-38 (NSC673596), topotecan (NSC609699), epotoside (NSC141540), doxorubicin (NSC123127), gemcitabine (NSC613327), 5-fluorouracil (NSC19893), paclitaxel (NSC125973), vemurafenib (NSC761431), MSA-2 (NSC828583), SN-011 (NSC837082), adavosertib (NSC754352), prexasertib (NSC758257), carboplatin (NSC241240) and oxaliplatin (NSC266046), were obtained from the National Cancer Institute (NCI) Developmental Therapeutics Program Chemical Repository (21). The FDA-approved anticancer drug set is available from the Developmental Therapeutics Program at https://dtp.cancer.gov/organization/dscb/obtaining/. […] The stock solutions were prepared in dimethyl sulfoxide (DMSO, Sigma-Aldrich, St. Louis, MO, cat. D2650), except for the platinum compounds which were prepared in saline (Quality Biological, Gaithersburg, MD, cat. 114-055-101), at 800-fold the tested concentration and stored at -70 degrees C prior to their use. All drugs and investigational agents were tested over a range starting from a high concentration at or near the clinical Cmax and decreasing in half-log increments. If the clinical Cmax for an agent had not been determined, the highest concentration tested was 10 microM, except for SN-38, which was tested at a high concentration of 1 microM.
Cell Culture. All cells were maintained in an incubator at 37 degrees C and 5% CO2 with 95% humidity. The PDC lines were cultured according to standard operating procedures established by the NCI PDMR (https://pdmr.cancer.gov). Table 3 of the manuscript, lists the cell lines along with the number of the three cell types plated to form the mct-spheroids and media for tumor cell growth. After thawing, all PDC lines, except 997537-175-T-J1-PDC and 415267-285-R-J2-PDC, were cultured in Matrigel-coated flasks prepared with a working solution of 1X Ham's F-12 nutrient mix, without supplementation (Thermo Fisher Scientific, cat. 11765054), 100 U/mL penicillin-streptomycin (Thermo Fisher Scientific, cat. 15140122), and 2.5% Matrigel (Corning Inc., Corning, NY, cat. 354248) for the first three passages. The two PDC lines 997537-175-T-J1-PDC and 415267-285-R-J2-PDC were cultured on uncoated flasks. The 857933-349-R-J2-PDC line was cultured in 6C/Colon 1B media containing advanced DMEM/F-12 (Thermo Fisher Scientific, cat. 12634028), 10 mM HEPES (Thermo Fisher Scientific, cat. 15630080), 1X GlutaMAX supplement (Thermo Fisher Scientific, cat. 35050061), 0.1 mg/mL primocin (InvivoGen, San Diego, CA, cat. ant-pm-2), 10% defined fetal bovine serum, heat inactivated (HyClone Laboratories Inc., Logan, UT, cat. SH30070.03HI), 50% L-WRN conditioned media (ATCC, cat. CRL-3276), 1.25 mM N-Acetyl-L-cysteine (Sigma-Aldrich, cat. A9165), 10 mM nicotinamide (Sigma-Aldrich, cat. N0636), 1X B-27 supplement (Thermo Fisher Scientific, cat. 17504044), 1X N-2 supplement (Thermo Fisher Scientific, cat. […]

[1] = second compound 0.0316 µM, first compound 0.0316 µM
[2] = second compound 0.0316 µM, first compound 0.1 µM
[3] = second compound 0.1 µM, first compound 0.0316 µM
[4] = second compound 0.1 µM, first compound 0.1 µM
[5] = second compound 0.316 µM, first compound 0.0316 µM
[6] = second compound 0.316 µM, first compound 0.1 µM
[7] = second compound 1 µM, first compound 0.0316 µM
[8] = second compound 1 µM, first compound 0.1 µM
[9] = second compound 3.16 µM, first compound 0.0316 µM
[10] = second compound 3.16 µM, first compound 0.1 µM
[11] = second compound 10 µM, first compound 0.0316 µM
[12] = second compound 10 µM, first compound 0.1 µM
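Also: spheroids exposed to drugs for one week before readout.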
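For viability, T/C in this document: percent viability relative to DMSO vehicle control wells set as 100%.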

CC[C@@]1(O)C(=O)OCc2c1cc1n(c2=O)Cc2cc3c(CN(C)C)c(O)ccc3nc2-1 + Cc1cccc(N(C)C(=O)C2C(O)CCN2c2nc(C)cc(C(F)(F)F)c2C#N)c1
inactive: viability, T/C (second compound 0.0316 µM, first compound 0.000316 µM) 100% | viability, T/C (second compound 0.0316 µM, first compound 0.001 µM) 91.2% | viability, T/C (second compound 0.0316 µM, first compound 0.00316 µM) 74.6% | viability, T/C (second compound 0.0316 µM, first compound 0.01 µM) 70.4% | viability, T/C [1] 63.1% | viability, T/C [2] 43.4% | viability, T/C (second compound 0.1 µM, first compound 0.000316 µM) 86.4% | viability, T/C (second compound 0.1 µM, first compound 0.001 µM) 94.6% | viability, T/C (second compound 0.1 µM, first compound 0.00316 µM) 87.9% | viability, T/C (second compound 0.1 µM, first compound 0.01 µM) 76.8% | viability, T/C [3] 64.7% | viability, T/C [4] 45.2% | viability, T/C (second compound 0.316 µM, first compound 0.000316 µM) 94.3% | viability, T/C (second compound 0.316 µM, first compound 0.001 µM) 88.9% | viability, T/C (second compound 0.316 µM, first compound 0.00316 µM) 70.4% | viability, T/C (second compound 0.316 µM, first compound 0.01 µM) 76.3% | viability, T/C [5] 57.4% | viability, T/C [6] 46.3% | viability, T/C (second compound 1 µM, first compound 0.000316 µM) 93.7% | viability, T/C (second compound 1 µM, first compound 0.001 µM) 74% | viability, T/C (second compound 1 µM, first compound 0.00316 µM) 88.8% | viability, T/C (second compound 1 µM, first compound 0.01 µM) 68.3% | viability, T/C [7] 68% | viability, T/C [8] 50.4% | viability, T/C (second compound 3.16 µM, first compound 0.000316 µM) 78.3% | viability, T/C (second compound 3.16 µM, first compound 0.001 µM) 99% | viability, T/C (second compound 3.16 µM, first compound 0.00316 µM) 80.7% | viability, T/C (second compound 3.16 µM, first compound 0.01 µM) 63% | viability, T/C [9] 61.2% | viability, T/C [10] 47% | viability, T/C (second compound 10 µM, first compound 0.000316 µM) 97.9% | viability, T/C (second compound 10 µM, first compound 0.001 µM) 71.1% | viability, T/C (second compound 10 µM, first compound 0.00316 µM) 75.7% | viability, T/C (second compound 10 µM, first compound 0.01 µM) 68% | viability, T/C [11] 62.2% | viability, T/C [12] 47.5%
0.0738 µM: IC50 (second compound 0.316 µM)
0.0689 µM: IC50 (second compound 0.0316 µM)
0.0749 µM: IC50 (second compound 0.1 µM)
> 0.1 µM: IC50 (second compound 1 µM) | IC50 (second compound 3.16 µM) | IC50 (second compound 10 µM)

CCc1cc2c(N3CCc4c(cc(Cn5ccnc5)cc4-c4cn(C)nc4C(F)(F)F)C3=O)cc(C)nc2c(OC)n1 + Cc1cccc(N(C)C(=O)C2C(O)CCN2c2nc(C)cc(C(F)(F)F)c2C#N)c1
0.7 µM: IC50 (second compound 0.316 µM)
0.658 µM: IC50 (second compound 0.1 µM)
0.467 µM: IC50 (second compound 3.16 µM)
inactive: viability, T/C [1] 77.9% | viability, T/C [2] 72% | viability, T/C (second compound 0.0316 µM, first compound 0.316 µM) 45.9% | viability, T/C (second compound 0.0316 µM, first compound 1 µM) 44.4% | viability, T/C (second compound 0.0316 µM, first compound 3.16 µM) 31.8% | viability, T/C (second compound 0.0316 µM, first compound 10 µM) 26.9% | viability, T/C [3] 90.2% | viability, T/C [4] 71% | viability, T/C (second compound 0.1 µM, first compound 0.316 µM) 59.3% | viability, T/C (second compound 0.1 µM, first compound 1 µM) 44% | viability, T/C (second compound 0.1 µM, first compound 3.16 µM) 38.1% | viability, T/C (second compound 0.1 µM, first compound 10 µM) 31.4% | viability, T/C [5] 94.8% | viability, T/C [6] 65.3% | viability, T/C (second compound 0.316 µM, first compound 0.316 µM) 56.3% | viability, T/C (second compound 0.316 µM, first compound 1 µM) 48.4% | viability, T/C (second compound 0.316 µM, first compound 3.16 µM) 43.2% | viability, T/C (second compound 0.316 µM, first compound 10 µM) 22.5% | viability, T/C [7] 69% | viability, T/C [8] 80.6% | viability, T/C (second compound 1 µM, first compound 0.316 µM) 58.1% | viability, T/C (second compound 1 µM, first compound 1 µM) 39.8% | viability, T/C (second compound 1 µM, first compound 3.16 µM) 34.2% | viability, T/C (second compound 1 µM, first compound 10 µM) 26.6% | viability, T/C [9] 91.9% | viability, T/C [10] 66.2% | viability, T/C (second compound 3.16 µM, first compound 0.316 µM) 56.4% | viability, T/C (second compound 3.16 µM, first compound 1 µM) 38% | viability, T/C (second compound 3.16 µM, first compound 3.16 µM) 44% | viability, T/C (second compound 3.16 µM, first compound 10 µM) 27.1% | viability, T/C [11] 66.5% | viability, T/C [12] 64.7% | viability, T/C (second compound 10 µM, first compound 0.316 µM) 45.1% | viability, T/C (second compound 10 µM, first compound 1 µM) 37.1% | viability, T/C (second compound 10 µM, first compound 3.16 µM) 36% | viability, T/C (second compound 10 µM, first compound 10 µM) 26.8%
0.397 µM: IC50 (second compound 0.0316 µM)
0.257 µM: IC50 (second compound 10 µM)
0.554 µM: IC50 (second compound 1 µM)
